{"source": "patent US20240400521A1", "about": "“QUINAZOLINE COMPOUND, COMPOSITION, AND APPLICATION THEREOF” (BEIJING SCITECH-MQ PHARMACEUTICALS LIMITED, priority 2021, published 2024)", "key": {"[1]": {"target": "Ba/F3 EGFR D770_N771insSVD cells (Homo sapiens, UniProt P00533, DUP768-770, cells depend on it)", "sequence (P00533 with tags, fused parts or gaps DUP768-770)": "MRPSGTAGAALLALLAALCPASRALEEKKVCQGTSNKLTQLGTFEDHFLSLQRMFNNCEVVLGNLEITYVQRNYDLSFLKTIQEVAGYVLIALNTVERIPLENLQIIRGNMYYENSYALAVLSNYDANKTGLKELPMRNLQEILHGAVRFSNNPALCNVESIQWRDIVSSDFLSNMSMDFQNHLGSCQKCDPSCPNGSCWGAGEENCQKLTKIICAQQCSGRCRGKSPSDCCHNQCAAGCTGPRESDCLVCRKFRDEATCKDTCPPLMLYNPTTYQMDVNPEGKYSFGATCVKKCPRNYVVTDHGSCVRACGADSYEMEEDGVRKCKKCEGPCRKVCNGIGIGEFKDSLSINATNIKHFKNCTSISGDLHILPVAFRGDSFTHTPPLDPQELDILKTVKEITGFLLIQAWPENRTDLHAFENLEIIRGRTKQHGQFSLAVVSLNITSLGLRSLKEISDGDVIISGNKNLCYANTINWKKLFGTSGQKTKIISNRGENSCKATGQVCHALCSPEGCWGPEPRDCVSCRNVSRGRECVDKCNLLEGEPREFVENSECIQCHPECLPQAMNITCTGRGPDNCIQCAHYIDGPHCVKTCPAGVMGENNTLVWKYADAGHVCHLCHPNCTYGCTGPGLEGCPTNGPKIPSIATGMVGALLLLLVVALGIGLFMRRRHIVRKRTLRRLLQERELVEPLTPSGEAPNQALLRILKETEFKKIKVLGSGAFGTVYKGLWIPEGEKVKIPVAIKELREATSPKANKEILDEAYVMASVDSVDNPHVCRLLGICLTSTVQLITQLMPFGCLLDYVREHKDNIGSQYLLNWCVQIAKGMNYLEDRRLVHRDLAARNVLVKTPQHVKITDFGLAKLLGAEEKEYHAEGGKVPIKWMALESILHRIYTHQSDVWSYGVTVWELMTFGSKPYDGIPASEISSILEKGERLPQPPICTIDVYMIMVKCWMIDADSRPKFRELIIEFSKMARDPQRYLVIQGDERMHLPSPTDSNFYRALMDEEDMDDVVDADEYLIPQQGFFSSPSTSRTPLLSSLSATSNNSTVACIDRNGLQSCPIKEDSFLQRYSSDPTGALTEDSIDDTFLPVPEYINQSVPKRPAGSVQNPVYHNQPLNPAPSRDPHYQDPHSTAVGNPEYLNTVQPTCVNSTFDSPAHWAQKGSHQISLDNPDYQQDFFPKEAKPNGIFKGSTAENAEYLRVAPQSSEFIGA", "test": "Inhibition of cell proliferation, CTG method, Ba/F3 EGFR D770_N771insSVD", "format": "cell-based", "conditions": "72 hours, read-out: Ba/F3 EGFR D770_N771insSVD IC50", "source_text": "(§1) The present application examined the in vitro anti-proliferative activity of the compounds of the present disclosure against in vitro cultured HCC-827, Ba/F3-EGFR-VIII and Ba/F3 EGFR D770_N771insSVD cell lines by CTG method.\n(§2) Reagents and consumables: RPMI1640 (ThermoFisher, Cat. No. C11875500BT); DMEM (ThermoFisher, C11995500BT); fetal bovine serum (Hyclone, Cat. No. SV30087.03); 0.25% trypsin-EDTA (ThermoFisher, Cat. No. 25200072); penicillin-streptomycin (Hyclone, Cat. No. SV30010); DMSO (Life Science, Cat. No. 0231-500ML); CTG assay kit (Promega, Cat. No. G9243); 96-well plate (Corning, Cat. No. 3599); multifunctional plate reader (Perkin Elmer, Cat. No. Envision)\n(§3) Cell lines: HCC-827 (from ATCC), Ba/F3-EGFR-VIII and Ba/F3 EGFR D770_N771insSVD (all from KYinno Biotechnology (Beijing) Co., Ltd.); all of the above cells were cultured with RPMI1640 medium containing 10% fetal bovine serum, 100 U/mL penicillin, and 100 μg/mL streptomycin in the culture process, and HCC-827 was cultured with DMEM medium containing 10% fetal bovine serum, 100 U/mL penicillin, and 100 μg/mL streptomycin.\n(§4) • 1. The assay compound was dissolved with DMSO to form a stock solution and a gradient dilution was performed, followed by dilution with the corresponding medium to obtain a solution with 5-fold working concentration. • 2. Cells in logarithmic growth phase were adjusted to specific cell densities by dilution with culture medium, and 80 μL of cell suspension was added to a 96-well plate, such that plating densities of cells of HCC-827, Ba/F3-EGFR-VIII and Ba/F3 EGFR D770_N771insSVD were all 3000 cells/well. The cells of Ba/F3-EGFR-VIII and Ba/F3 EGFR D770_N771insSVD were used directly in the next step (treatment with compound), whereas the HCC-827 needed to be cultured overnight in a 37° C., 5% carbon dioxide gas incubator to adhere to the wall, and then treated with compounds. • 3. 20 μL of compound solution was added to each well of the 96-well plate that had been inoculated with cells. The highest concentration of the assayed compound was 10 μM, 4-fold serial dilution, a total of 9 concentrations, and duplicate wells. A control group without compound was also set up. • 4. The cells were cultured for another 72 hours, and then cell viability was detected by CTG assay kit. Signal values were read with a multifunctional plate reader (Perkin Elmer). GraphPad Prism software was used to create a dose-response curve and IC50 was calculated."}, "Ba/F3-EGFR-VIII cells": {"target": "Ba/F3-EGFR-VIII cells (Homo sapiens, UniProt P00533, DELINS30-297G, cells depend on it)", "sequence (P00533 with tags, fused parts or gaps DELINS30-297G)": "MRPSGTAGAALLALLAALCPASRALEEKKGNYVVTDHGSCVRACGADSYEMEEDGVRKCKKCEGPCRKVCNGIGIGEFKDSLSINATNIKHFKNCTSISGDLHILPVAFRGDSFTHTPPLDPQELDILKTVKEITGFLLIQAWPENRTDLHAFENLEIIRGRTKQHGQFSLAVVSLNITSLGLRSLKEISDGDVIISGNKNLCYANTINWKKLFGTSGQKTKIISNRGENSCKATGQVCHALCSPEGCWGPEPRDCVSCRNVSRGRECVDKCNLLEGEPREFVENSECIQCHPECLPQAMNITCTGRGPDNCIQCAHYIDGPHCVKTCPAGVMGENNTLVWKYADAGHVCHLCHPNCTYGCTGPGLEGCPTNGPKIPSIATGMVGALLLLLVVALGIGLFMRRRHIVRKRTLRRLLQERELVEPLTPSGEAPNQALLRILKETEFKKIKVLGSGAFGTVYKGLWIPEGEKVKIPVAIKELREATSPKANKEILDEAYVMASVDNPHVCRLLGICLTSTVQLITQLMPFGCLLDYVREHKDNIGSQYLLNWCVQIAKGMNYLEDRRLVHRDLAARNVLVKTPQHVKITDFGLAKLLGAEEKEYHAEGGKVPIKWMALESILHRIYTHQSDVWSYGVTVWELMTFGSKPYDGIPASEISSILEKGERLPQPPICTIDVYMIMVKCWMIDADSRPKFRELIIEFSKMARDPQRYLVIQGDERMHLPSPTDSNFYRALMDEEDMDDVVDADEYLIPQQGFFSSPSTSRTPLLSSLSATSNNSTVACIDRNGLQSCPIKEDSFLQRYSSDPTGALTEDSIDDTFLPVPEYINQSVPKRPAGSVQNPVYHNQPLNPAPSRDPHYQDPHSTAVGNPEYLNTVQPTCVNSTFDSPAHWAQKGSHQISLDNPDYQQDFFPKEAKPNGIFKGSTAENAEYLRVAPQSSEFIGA", "test": "Inhibition of cell proliferation, CTG method, Ba/F3-EGFR-VIII", "format": "cell-based", "conditions": "72 hours, read-out: Ba/F3 EGFRvIII IC50", "source_text": "as §1, §2, §3, §4"}, "EGFR^WT kinase": {"target": "T1, EGFR^WT kinase (Homo sapiens, UniProt P00533)", "T1 construct": "purchased Carna Biosciences 08-115", "T1 sequence (P00533 25-1210)": "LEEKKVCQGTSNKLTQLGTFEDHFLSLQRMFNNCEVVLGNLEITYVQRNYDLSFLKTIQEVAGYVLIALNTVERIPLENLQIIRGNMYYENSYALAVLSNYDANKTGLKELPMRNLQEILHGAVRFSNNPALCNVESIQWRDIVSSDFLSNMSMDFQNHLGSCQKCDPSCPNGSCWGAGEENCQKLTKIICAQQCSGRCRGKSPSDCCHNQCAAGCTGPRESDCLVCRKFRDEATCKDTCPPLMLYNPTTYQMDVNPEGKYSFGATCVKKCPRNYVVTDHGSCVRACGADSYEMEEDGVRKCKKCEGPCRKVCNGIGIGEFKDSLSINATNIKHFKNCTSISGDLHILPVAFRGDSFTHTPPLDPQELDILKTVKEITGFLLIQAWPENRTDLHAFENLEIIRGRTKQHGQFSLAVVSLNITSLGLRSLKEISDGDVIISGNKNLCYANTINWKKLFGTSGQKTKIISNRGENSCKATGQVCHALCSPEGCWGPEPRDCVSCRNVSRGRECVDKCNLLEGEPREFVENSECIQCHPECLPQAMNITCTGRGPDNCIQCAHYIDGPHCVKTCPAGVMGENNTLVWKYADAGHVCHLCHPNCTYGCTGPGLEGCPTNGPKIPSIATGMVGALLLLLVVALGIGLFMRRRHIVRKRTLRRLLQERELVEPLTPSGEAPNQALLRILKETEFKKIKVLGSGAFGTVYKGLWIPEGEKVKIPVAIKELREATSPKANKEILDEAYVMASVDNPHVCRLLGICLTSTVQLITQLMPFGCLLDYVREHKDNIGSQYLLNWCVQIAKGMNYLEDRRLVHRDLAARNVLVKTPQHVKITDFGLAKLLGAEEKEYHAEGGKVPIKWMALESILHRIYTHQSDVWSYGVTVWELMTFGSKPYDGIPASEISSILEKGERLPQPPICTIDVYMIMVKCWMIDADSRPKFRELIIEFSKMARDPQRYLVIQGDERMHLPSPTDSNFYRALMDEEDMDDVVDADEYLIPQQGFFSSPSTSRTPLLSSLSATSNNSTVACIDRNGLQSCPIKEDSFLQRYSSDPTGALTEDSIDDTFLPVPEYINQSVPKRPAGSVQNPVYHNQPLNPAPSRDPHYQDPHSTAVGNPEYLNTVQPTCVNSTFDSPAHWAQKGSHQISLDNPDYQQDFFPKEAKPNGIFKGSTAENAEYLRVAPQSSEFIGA", "test": "EGFR^WT kinase assay (ULight peptide / Eu-PT66 antibody detection)", "format": "biochemical", "source_text": "(§5) Reagents and consumables: ULight™-labeled Ploy GT Peptide (Perkin Elmer, Cat. No. TRF-0100-M); ULight™-labeled JAK-1 (Try1023) Peptide (Perkin Elmer, Cat. No. TRF-0121-M); Eu-W1024-labeled Anti-Phosphotyrosine Antibody (PT66) (Perkin Elmer, Cat. No. AD0068); 10×Detection Buffer (Perkin Elmer, Cat. No. CR97-100); HER2 Kinase (Carna Biosciences, Cat. No. 08-016); EGFR kinase (Carna Biosciences, Cat. No. 08-115); HEPES (GIBCO, Cat. No. 15630-080); EGTA (Sigma, Cat. No. 03777-10G); EDTA (Sigma, Cat. No. EDS-100G); MgCl2 (Sigma, Cat. No. 63069-100ML); DTT (Sigma, Cat. No. 43816-10ML); Tween-20 (Sigma, Cat. No. P7949-100ML); DMSO (Life Science, Cat. No. 0231-500ML); 384-well plates (Perkin Elmer, Cat. No. 607290); multifunctional plate reader (Perkin Elmer, Cat. No. Envision)\n(§6) Preparation of compound solution: The assay compound was dissolved in DMSO to form a 10 mM stock solution. Prior to use, the compound was diluted to 0.25 mM in DMSO (100 times the final concentration of the diluent) and then subjected to a 3-fold concentration gradient dilution to obtain a total of 11 concentrations. The solution was diluted with buffer to a diluent with 4× the final concentration when the drug was added.\n(§7) EGFR^WT kinase assay: buffer was prepared, and 3.48 nM 4× EGFR kinase solution, 600 μM 4× ATP solution, and 400 nM 4×ULight™-labeled JAK-1 (Try1023) Peptide substrate solution was prepared using the buffer. After the preparation was completed, the enzyme was mixed with different concentrations of compounds pre-prepared by dilution, and the mixture was left to stand at room temperature for 5 min. Each concentration was performed in duplicate. The corresponding substrate and ATP were added and the mixture was reacted at room temperature for 120 minutes (with negative and positive controls). After completion of the reaction, PT66 detection antibody was added. The mixture was incubated at room temperature for 60 minutes, and then detected by Envision.\n(§8) Data Calculation: the reading of well and inhibition rate were calculated using Excel, wherein reading of well=10000*(well EU665 value)/(well EU615 value), and inhibition rate=[(reading of positive control well−reading of assay well)/(reading of positive control well−reading of negative control well)]*100%. Compound concentrations and corresponding inhibition rates were input into GraphPad Prism for processing to calculate IC50 values."}, "HER2 kinase": {"target": "T2, HER2 kinase (Homo sapiens, UniProt P04626)", "T2 construct": "purchased Carna Biosciences 08-016", "T2 sequence (P04626 23-1255)": "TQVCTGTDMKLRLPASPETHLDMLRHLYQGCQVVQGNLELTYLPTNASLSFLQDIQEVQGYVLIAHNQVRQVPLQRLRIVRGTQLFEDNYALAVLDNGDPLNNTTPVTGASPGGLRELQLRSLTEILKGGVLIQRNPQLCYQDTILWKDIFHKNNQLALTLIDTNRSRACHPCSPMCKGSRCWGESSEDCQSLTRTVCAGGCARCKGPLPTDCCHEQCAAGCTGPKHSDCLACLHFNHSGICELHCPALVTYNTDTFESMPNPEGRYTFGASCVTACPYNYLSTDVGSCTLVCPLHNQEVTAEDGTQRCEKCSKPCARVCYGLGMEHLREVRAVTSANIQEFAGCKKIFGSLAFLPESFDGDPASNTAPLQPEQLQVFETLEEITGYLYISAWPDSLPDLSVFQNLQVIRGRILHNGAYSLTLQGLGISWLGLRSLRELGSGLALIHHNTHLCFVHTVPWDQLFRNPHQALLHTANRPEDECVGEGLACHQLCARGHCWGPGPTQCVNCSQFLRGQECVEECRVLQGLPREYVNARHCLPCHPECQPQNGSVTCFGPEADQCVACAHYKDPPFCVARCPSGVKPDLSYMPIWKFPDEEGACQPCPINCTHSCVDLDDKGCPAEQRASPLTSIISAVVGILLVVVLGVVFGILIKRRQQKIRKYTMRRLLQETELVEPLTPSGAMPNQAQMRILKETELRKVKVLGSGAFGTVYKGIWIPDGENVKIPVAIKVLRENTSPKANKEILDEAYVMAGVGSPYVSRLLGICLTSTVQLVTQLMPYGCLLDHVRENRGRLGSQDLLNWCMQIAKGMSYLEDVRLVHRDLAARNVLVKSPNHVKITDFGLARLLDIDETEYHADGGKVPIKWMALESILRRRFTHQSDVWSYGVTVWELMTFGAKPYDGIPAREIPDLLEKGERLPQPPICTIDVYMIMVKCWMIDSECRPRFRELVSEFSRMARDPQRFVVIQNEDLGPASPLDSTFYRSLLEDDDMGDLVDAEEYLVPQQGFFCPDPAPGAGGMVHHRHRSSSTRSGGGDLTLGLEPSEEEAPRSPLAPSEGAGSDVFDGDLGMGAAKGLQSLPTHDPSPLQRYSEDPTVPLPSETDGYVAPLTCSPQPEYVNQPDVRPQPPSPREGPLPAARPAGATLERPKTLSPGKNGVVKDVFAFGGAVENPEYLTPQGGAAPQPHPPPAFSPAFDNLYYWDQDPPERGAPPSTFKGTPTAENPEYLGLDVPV", "test": "HER2 kinase assay (ULight peptide / Eu-PT66 antibody detection)", "format": "biochemical", "source_text": "as §5, §6\nas §7, with “HER2 kinase” for “EGFR^WT kinase”, “and 40” for “and 3.48”, “4× HER2” for “4× EGFR”, “solution, 40” for “solution, 600”, “4×ULight™-labeled Ploy GT” for “4×ULight™-labeled JAK-1 (Try1023)”, “solution were” for “solution was”\nas §8"}}, "data": [{"smiles": "COc1c(NC(=O)/C=C/CN(C)C)ccc2ncnc(Nc3cccc(Cl)c3F)c12", "note": "[Example 1, (E)-N-(4-((3-chloro-2-fluorophenyl)amino)-5-methoxyquinazolin-6-yl)-4-(dimethylamino)but-2-enamide]", "values": [{"measurement": "GI50", "setting": "[1]", "result": "50 to 500", "unit": "nM"}, {"measurement": "GI50", "setting": "Ba/F3-EGFR-VIII cells", "result": "≤ 5", "unit": "nM"}, {"measurement": "IC50", "setting": "EGFR^WT kinase", "result": "≤ 1", "unit": "nM"}, {"measurement": "IC50", "setting": "HER2 kinase", "result": "100 to 1000", "unit": "nM"}]}]}
